From the NIST ThermoML archive (doi:10.1016/j.jct.2010.05.011)

Experiments:
[1] = 101.33 kPa, Liquid; for speed of sound: Sing-around technique in a fixed-path interferometer; for mass density: Vibrating tube method; for viscosity: Capillary tube (Ostwald / Ubbelohde) method
[2] = refractive index (Na D-line) (dimensionless); details: 101.33 kPa, Liquid, Standard Abbe refractometry

CCOS(=O)(=O)[O-].CCc1cccc[n+]1CC [1,2-diethylpyridinium ethylsulfate]
Details	mass density, [1] [kg/m3]	refractive index, [2]	speed of sound, [1] [m/s]	viscosity, [1] [mPa·s]
293.15 K	1223.6	1.5146	1759.3	–
298.15 K	1220.2	1.51328	1745.6	324.7
303.15 K	1217	1.51192	1731.3	233.2
308.15 K	1213.9	1.51057	1718.6	175.8
313.15 K	1210.3	1.5092	1705.7	135.5
318.15 K	1206.8	1.50788	1693	104
323.15 K	1203.4	1.50648	1680.5	83.3
328.15 K	1200.1	1.50513	1668.1	67.2
333.15 K	1196.8	1.50376	1656.2	55
338.15 K	1193.6	1.50239	1644.3	45.6
343.15 K	1190.3	1.5009	1632.7	38.12

COS(=O)(=O)[O-].Cc1ccc[n+](C)c1 [1,3-dimethylpyridinium methyl sulfate]
Details	mass density, [1] [kg/m3]	refractive index, [2]	speed of sound, [1] [m/s]	viscosity, [1] [mPa·s]
293.15 K	1305.87	1.5147	1834.9	–
298.15 K	1302.51	1.5133	1822.2	128.6
303.15 K	1299.14	1.51184	1809.7	97.1
308.15 K	1295.77	1.51051	1797.5	76.8
313.15 K	1292.42	1.50911	1785.4	61.2
318.15 K	1289.07	1.5077	1773.5	49.6
323.15 K	1285.74	1.5062	1761.7	40.86
328.15 K	1282.42	1.50472	1750	34.19
333.15 K	1279.11	1.50331	1738.4	28.8
338.15 K	1275.82	1.50193	1726.9	24.58
343.15 K	1272.55	1.50046	1715.6	21.15

COS(=O)(=O)[O-].C[n+]1ccccc1 [1-methylpyridinium methylsulfate]
Details	mass density, [1] [kg/m3]	refractive index, [2]	speed of sound, [1] [m/s]	viscosity, [1] [mPa·s]
293.15 K	1348.22	1.51431	1888.6	–
298.15 K	1344.83	1.51296	1876.4	116.2
303.15 K	1341.44	1.51162	1864.4	91
308.15 K	1338.07	1.51029	1852.6	73.1
313.15 K	1334.71	1.50895	1840.9	59.7
318.15 K	1331.35	1.50764	1829.4	49.3
323.15 K	1328.01	1.50629	1817.9	41.29
328.15 K	1324.69	1.50497	1806.5	35.41
333.15 K	1321.38	1.50361	1795.2	30.22
338.15 K	1318.09	1.50226	1784	26.16
343.15 K	1314.82	1.5009	1772.8	22.77

CCc1cccc[n+]1C.COS(=O)(=O)[O-] [2-ethyl-1-methylpyridinium methyl sulfate]
Details	mass density, [1] [kg/m3]	refractive index, [2]	speed of sound, [1] [m/s]	viscosity, [1] [mPa·s]
293.15 K	1288.3	1.52031	1869.2	–
298.15 K	1284.7	1.51902	1856	4559
303.15 K	1281.3	1.5177	1842.4	3207
308.15 K	1277.9	1.5164	1830.5	2329
313.15 K	1274.49	1.51508	1818.4	1728
318.15 K	1271.15	1.51374	1806.5	1293
323.15 K	1267.6	1.51245	1794.9	1012
328.15 K	1264.5	1.51115	1783	802
333.15 K	1261.3	1.50982	1770.2	646
338.15 K	1258.1	1.50852	1758.5	528
343.15 K	1254	1.50722	1747	437
